Data: patent US7816400B2 (The University of Hong Kong, priority 2007, dated 2010)
Entries after “also recorded” stand apart in the source; their conditions may differ.

How the values were obtained:
INa = INa in guinea pig ventricular myocytes; type: cell-based; conditions: 30 and 100 μM
Protocol: (§1) Guinea pigs of either gender (250-300 g) were sacrificed by cervical dislocation after anesthetization with pentobarbital (40 mg kg, i.p.). The procedure related to the use of animals in this invention was approved by the Animal Care and Use Committee for Teaching and Research of University of Hong Kong in accordance with the Guide for the Care and Use of Laboratory Animals (Institute of Laboratory Animal Resources, Commission on Life Sciences, National Research Council, 1996). Left atrial and ventricular myocytes from guinea pig hearts were enzymatically dissociated by the procedure described previously (Li et al., 2002a) and the isolated myocytes were kept in the K^+ storage medium.
The Ca^2+-free cardioplegic solution for specimen transport contained (in mM) 50 KH2PO4, 8 MgSO4, 5 adenosine, 10 HEPES, 140 glucose, 100 mannitol, 10 taurine, pH was adjusted to 7.3 with KOH. Tyrode solution contained (in mM) 140 NaCl, 5.4 KCl, 1 MgCl2, 1 CaCl2, 0.33 NaH2PO4, 10 HEPES, 10 glucose, pH was adjusted to 7.4 with NaOH. […] INa was recorded under conditions of K^+-free and a symmetrical Na^+ (5 mM) in pipette and superfusion solutions as described previously (Li at al., 2002a).
The whole-cell patch-clamp technique was used for electrophysiological recording. […] Membrane currents were recorded in voltage-clamp mode using an EPC-9 amplifier and Pulse software (HEKA, Lambrecht, Germany). […]

human atrial myocytes = test: Action potential in human atrial myocytes, perforated patch, current clamp; type: cell-based
Description: Atrial cells were isolated from specimens of human right atrial appendage obtained from patients (56.1±4.7 years old) undergoing coronary artery bypass grafting. […] All patients were free from supraventricular tachyarrythmias, and the atria were grossly normal at the time of surgery. After excision, the samples were quickly immersed in oxygenated, normally Ca^2+-free cardioplegic solution for transport to the laboratory. Atrial myocytes were enzymatically dissociated as described previously (Tian et al., 2006; Gao et al., 2004). Briefly, the atrial tissue was minced, and gently agitated by continuous bubbling with 100% O2 in a Ca^2+-free Tyrode solution for 15 min (5 min at a time in fresh solutions), and then incubated for 50 min in a similar solution containing 150-200 U/ml collagenase (CLS II, Worthington Biochemical, Freehold, N.J., USA), 0.2 mg/ml protease (type XXIV, Sigma-Aldrich Chemical, St Louis, Mo., USA.) and 1 mg/ml bovine serum albumin (Sigma-Aldrich). After then, the chunks were re-incubated in a fresh enzyme solution of the same composition but no protease. The quantity and quality of isolated cells were monitored under a microscope. When the cell yield appeared optimal, the chunks were suspended in a high K medium containing (mM) 10 KCl, 120 K-glutamate, 10 KH2PO4, 1.8 MgSO4, 10 taurine, 10 HEPES, 0.5 EGTA, 20 glucose, 10 mannitol, pH was adjusted to 7.3 with KOH and gently blown with a pipette. The isolated myocytes were kept at room temperature in the medium at least 1 h before use.
(§2) A small aliquot of the solution containing the isolated cells was placed in an open perfusion chamber (1-ml) mounted on the stage of an inverted microscope. Myocytes were allowed to adhere to the bottom of the chamber for 5-10 min and were the superfused at 2-3 ml/min with Tyrode solution. Only quiescent rod-shaped cells with clear cross-striations were used. The studies were conducted at room temperature (21-22° C.) for current recording or 36° C. for action potential recording.
The whole-cell patch-clamp technique was used for electrophysiological recording. Borosilicate glass electrodes (1.2-mm OD) were pulled with a Brown-Flamming puller (model P-97, Sutter Instrument Co, Novato, Calif., USA) and had tip resistances of 2-3 MΩ when filled with pipette solution. […] A 3-M KCl-agar salt bridge was used as reference electrode. The tip potentials were compensated before the pipette touched the cell. After a giga-ohm seal was obtained, the cell membrane was ruptured by gentle suction to establish the whole-cell configuration. […] The series resistance (Rs) was 3-5 MΩ and was compensated by 50-70% to minimize voltage errors. Perforated patch configuration was used for recording action potential in human atrial cells and IKs in HEK 293 cells as described previously (Li et al., 2002b; Dong et al., 2006). Current signals were low-pass filtered at 5 kHz and stored on the hard disk of an IBM compatible computer.

IKur = target: T1, IKur (Homo sapiens, UniProt P22460); test: IKur in human atrial myocytes, whole-cell patch clamp; type: cell-based; conditions: for inhibition of voltage-dependent IKur (tail and step currents), in words: 3, 10 and 30 μM
T1 construct: endogenous in cells; host or cells: human right atrial myocytes, freshly isolated
Protocol: (§3) Atrial cells were isolated from specimens of human right atrial appendage obtained from patients (56.1±4.7 years old) undergoing coronary artery bypass grafting. […] After excision, the samples were quickly immersed in oxygenated, normally Ca^2+-free cardioplegic solution for transport to the laboratory. […] Briefly, the atrial tissue was minced, and gently agitated by continuous bubbling with 100% O2 in a Ca^2+-free Tyrode solution for 15 min (5 min at a time in fresh solutions), and then incubated for 50 min in a similar solution containing 150-200 U/ml collagenase (CLS II, Worthington Biochemical, Freehold, N.J., USA), 0.2 mg/ml protease (type XXIV, Sigma-Aldrich Chemical, St Louis, Mo., USA.) and 1 mg/ml bovine serum albumin (Sigma-Aldrich). After then, the chunks were re-incubated in a fresh enzyme solution of the same composition but no protease. The quantity and quality of isolated cells were monitored under a microscope. When the cell yield appeared optimal, the chunks were suspended in a high K medium containing (mM) 10 KCl, 120 K-glutamate, 10 KH2PO4, 1.8 MgSO4, 10 taurine, 10 HEPES, 0.5 EGTA, 20 glucose, 10 mannitol, pH was adjusted to 7.3 with KOH and gently blown with a pipette. The isolated myocytes were kept at room temperature in the medium at least 1 h before use.
(§4) The Ca^2+-free cardioplegic solution for specimen transport contained (in mM) 50 KH2PO4, 8 MgSO4, 5 adenosine, 10 HEPES, 140 glucose, 100 mannitol, 10 taurine, pH was adjusted to 7.3 with KOH. Tyrode solution contained (in mM) 140 NaCl, 5.4 KCl, 1 MgCl2, 1 CaCl2, 0.33 NaH2PO4, 10 HEPES, 10 glucose, pH was adjusted to 7.4 with NaOH. The pipette solution contained (in mM) 20 KCl, 110 K-aspartate, 1 MgCl2, 10 HEPES, 5 EGTA, 0.1 GTP, 5 Na2-phosphocreatine, and 5 Mg2-ATP, pH was adjusted to 7.2 with KOH. For Ito and IKur recording, BaCl2 (200 μM) and CdCl2 (200 μM) were added to the superfusion to block IK1 and ICa.L. Atropine (1.0 μM) was used to minimize possible IK.ACh contamination during the current recording. For ICa.L recording, K^+ in pipette and Tyrode solution was replaced by CsCl. INa was recorded under conditions of K^+-free and a symmetrical Na^+ (5 mM) in pipette and superfusion solutions as described previously (Li at al., 2002a).
A small aliquot of the solution containing the isolated cells was placed in an open perfusion chamber (1-ml) mounted on the stage of an inverted microscope. […]
The whole-cell patch-clamp technique was used for electrophysiological recording. […] Membrane currents were recorded in voltage-clamp mode using an EPC-9 amplifier and Pulse software (HEKA, Lambrecht, Germany). […] The cell membrane capacitance (pF) was directly measured using the lock-in module of the Pulse software, and used for normalizing the current in individual cells.

IK1 = IK1 in guinea pig ventricular myocytes; type: cell-based; conditions: 30 and 100 μM
Protocol: as §1
The whole-cell patch-clamp technique was used for electrophysiological recording. Borosilicate glass electrodes (1.2-mm OD) were pulled with a Brown-Flamming puller (model P-97, Sutter Instrument Co, Novato, Calif., USA) and had tip resistances of 2-3 MΩ when filled with pipette solution. Membrane currents were recorded in voltage-clamp mode using an EPC-9 amplifier and Pulse software (HEKA, Lambrecht, Germany). A 3-M KCl-agar salt bridge was used as reference electrode. The tip potentials were compensated before the pipette touched the cell. […] The cell membrane capacitance (pF) was directly measured using the lock-in module of the Pulse software, and used for normalizing the current in individual cells. […]

[1] = Water solubility (statement); type: physicochemical; conditions: for injection application
Ito = target: T2, Ito (Homo sapiens, UniProt Q9UK17); test: Ito in human atrial myocytes, whole-cell patch clamp; type: cell-based; conditions: for voltage-dependence of steady-state inactivation and activation of Ito, in words: 10 μM
T2 sequence (Q9UK17 1-655): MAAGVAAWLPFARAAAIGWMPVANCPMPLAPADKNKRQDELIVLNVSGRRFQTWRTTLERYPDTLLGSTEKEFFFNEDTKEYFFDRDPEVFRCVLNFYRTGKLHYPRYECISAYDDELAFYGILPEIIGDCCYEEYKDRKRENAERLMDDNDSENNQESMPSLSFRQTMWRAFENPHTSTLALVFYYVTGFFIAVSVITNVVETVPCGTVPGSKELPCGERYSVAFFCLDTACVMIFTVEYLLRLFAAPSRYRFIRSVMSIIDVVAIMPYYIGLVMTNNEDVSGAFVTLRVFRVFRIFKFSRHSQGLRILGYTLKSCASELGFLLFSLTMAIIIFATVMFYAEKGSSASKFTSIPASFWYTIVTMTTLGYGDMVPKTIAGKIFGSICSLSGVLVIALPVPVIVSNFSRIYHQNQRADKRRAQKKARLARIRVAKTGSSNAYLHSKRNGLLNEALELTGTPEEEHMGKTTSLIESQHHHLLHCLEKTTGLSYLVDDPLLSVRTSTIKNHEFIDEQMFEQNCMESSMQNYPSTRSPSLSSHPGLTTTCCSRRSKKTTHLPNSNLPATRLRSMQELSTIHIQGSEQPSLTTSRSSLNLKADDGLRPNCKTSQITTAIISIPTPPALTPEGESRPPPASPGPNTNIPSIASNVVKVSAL
T2 sequence (Q9NS61 1-270 partner): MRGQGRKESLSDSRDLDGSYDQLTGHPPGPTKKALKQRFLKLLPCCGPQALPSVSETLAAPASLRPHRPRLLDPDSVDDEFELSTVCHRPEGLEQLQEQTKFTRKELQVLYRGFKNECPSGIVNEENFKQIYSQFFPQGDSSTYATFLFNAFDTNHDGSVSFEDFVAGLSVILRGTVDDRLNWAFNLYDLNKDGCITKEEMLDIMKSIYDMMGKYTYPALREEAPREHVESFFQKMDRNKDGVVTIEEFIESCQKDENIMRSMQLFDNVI
Protocol: as §3, §4, §2

[2] = target: IKs channels (hKCNQ1/hKCNE1) (Homo sapiens, UniProt P51787); test: IKs in HEK 293 cells stably expressing hKCNQ1/hKCNE1; type: cell-based; conditions: for inhibition of IKs amplitude, in words: 30 μM
Protocol: The established HEK 293 cell lines stably expressing the hERG channel gene, Kv1.5 (Tang et al., 2007), or recombinant human cardiac KCNQ1/KCNE1 channel current (IKs) (Dong et al., 2006) was maintained separately in Dulbecco's modified eagle medium (Invitrogen) supplemented with 10% fetal bovine serum and containing 400 μg/ml G418 (for hERG or Kv1.5 channels) or 100 μg/ml hygromycin (for IKs).
The whole-cell patch-clamp technique was used for electrophysiological recording. Borosilicate glass electrodes (1.2-mm OD) were pulled with a Brown-Flamming puller (model P-97, Sutter Instrument Co, Novato, Calif., USA) and had tip resistances of 2-3 MΩ when filled with pipette solution. Membrane currents were recorded in voltage-clamp mode using an EPC-9 amplifier and Pulse software (HEKA, Lambrecht, Germany). A 3-M KCl-agar salt bridge was used as reference electrode. The tip potentials were compensated before the pipette touched the cell. After a giga-ohm seal was obtained, the cell membrane was ruptured by gentle suction to establish the whole-cell configuration. The cell membrane capacitance (pF) was directly measured using the lock-in module of the Pulse software, and used for normalizing the current in individual cells. The series resistance (Rs) was 3-5 MΩ and was compensated by 50-70% to minimize voltage errors. Perforated patch configuration was used for recording action potential in human atrial cells and IKs in HEK 293 cells as described previously (Li et al., 2002b; Dong et al., 2006). Current signals were low-pass filtered at 5 kHz and stored on the hard disk of an IBM compatible computer.

hERG channels = hERG channels (Homo sapiens, UniProt Q12809); test: cell-based
[3] = extract fraction / isolated compound, concentration not given

T1 sequence (P22460 whole entry): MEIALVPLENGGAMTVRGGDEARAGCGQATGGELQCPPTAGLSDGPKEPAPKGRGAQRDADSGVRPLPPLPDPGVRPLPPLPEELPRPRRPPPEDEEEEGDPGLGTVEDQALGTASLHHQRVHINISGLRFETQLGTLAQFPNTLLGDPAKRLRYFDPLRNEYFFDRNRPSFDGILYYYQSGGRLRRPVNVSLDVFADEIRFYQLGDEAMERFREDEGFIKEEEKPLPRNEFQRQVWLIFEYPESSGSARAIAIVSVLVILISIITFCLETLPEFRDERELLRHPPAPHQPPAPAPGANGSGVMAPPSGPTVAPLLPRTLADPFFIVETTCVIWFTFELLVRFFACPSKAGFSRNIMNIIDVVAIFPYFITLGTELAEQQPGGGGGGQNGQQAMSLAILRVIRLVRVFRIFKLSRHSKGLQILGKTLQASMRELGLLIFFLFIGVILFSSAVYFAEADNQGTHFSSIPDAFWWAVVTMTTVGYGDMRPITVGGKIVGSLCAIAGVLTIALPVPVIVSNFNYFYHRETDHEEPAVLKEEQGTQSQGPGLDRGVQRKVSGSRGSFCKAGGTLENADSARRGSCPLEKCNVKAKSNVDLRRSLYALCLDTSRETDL
Sequence of hERG channels (Q12809 whole entry): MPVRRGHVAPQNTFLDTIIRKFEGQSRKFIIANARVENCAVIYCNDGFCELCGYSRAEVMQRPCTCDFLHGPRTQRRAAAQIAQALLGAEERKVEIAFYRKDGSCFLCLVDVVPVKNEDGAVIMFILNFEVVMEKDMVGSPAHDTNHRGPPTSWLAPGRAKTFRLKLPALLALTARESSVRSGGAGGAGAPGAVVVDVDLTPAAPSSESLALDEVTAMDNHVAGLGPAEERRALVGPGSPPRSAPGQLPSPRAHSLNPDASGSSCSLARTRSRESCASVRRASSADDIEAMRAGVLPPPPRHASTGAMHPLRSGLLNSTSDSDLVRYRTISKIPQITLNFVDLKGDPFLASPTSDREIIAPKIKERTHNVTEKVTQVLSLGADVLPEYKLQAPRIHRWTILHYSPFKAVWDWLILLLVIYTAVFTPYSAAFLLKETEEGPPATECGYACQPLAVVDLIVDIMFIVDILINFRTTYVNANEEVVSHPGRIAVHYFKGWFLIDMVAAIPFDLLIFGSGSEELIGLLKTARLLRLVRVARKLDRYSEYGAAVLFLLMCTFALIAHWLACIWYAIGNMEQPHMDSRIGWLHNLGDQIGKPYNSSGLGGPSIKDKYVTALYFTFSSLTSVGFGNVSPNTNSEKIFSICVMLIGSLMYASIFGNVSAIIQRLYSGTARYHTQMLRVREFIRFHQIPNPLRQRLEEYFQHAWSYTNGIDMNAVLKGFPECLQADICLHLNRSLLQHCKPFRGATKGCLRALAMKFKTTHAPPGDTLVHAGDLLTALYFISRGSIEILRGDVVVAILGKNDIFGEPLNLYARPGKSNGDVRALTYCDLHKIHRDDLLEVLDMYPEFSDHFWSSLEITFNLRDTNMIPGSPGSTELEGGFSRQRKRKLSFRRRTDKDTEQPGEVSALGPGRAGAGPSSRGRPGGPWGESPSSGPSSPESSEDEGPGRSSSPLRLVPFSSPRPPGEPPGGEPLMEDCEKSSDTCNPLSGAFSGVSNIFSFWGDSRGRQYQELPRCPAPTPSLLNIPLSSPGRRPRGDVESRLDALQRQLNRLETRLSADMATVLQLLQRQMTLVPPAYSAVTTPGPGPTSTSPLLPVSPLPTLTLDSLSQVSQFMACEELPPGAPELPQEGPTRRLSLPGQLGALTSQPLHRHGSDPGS

## COc1ccc(-c2cc(=O)c3c(O)cc(O)cc3o2)cc1 [Acacetin, 5,7-dihydroxy-4′-methoxyflavone]
INa
  effect on INa, in words: no effect; also recorded: no inhibition
INa; listed as acacetin
  effect on INa, in words: no effects
Human atrial myocytes; 10 μM, 0.5 Hz vs 2 Hz
  rate dependence of APD prolongation, in words: slight rate-dependent increase; also recorded: slight rate-dependent prolongation
Human atrial myocytes; 5 and 10 μM, 0.5, 1.0, 2.0 Hz, 36° C.
  action potential duration (APD50, APD75, APD90), in words: significantly prolonged
Human atrial myocytes; 5 or 10 μM, 2 Hz
  resting membrane potential and amplitude of action potential, in words: without affecting
IKur
  inhibition of voltage-dependent IKur (tail and step currents), in words: substantially inhibited
IKur; listed as acacetin
  inhibition of voltage-dependent IKur (tail and step currents), in words: suppressed
IKur; [3]
  effect on IKur in human atrial myocytes, in words: blocking effect
IKur; human atrial myocytes, +40 mV, 0.3 to 100 μM, Hill equation fit, read-out: IC50 for inhibiting IKur
  IC50: 3.2 µM
IK1
  effect on IK1, in words: no effect; also recorded: no inhibition
IK1; listed as acacetin
  effect on IK1, in words: no effects
[1]
  water solubility, in words: not water soluble
Ito
  voltage-dependence of steady-state inactivation and activation of Ito, in words: did not affect
Ito; listed as acacetin
  voltage-dependence of steady-state inactivation and activation of Ito, in words: not affected; also recorded: without affecting
Ito; 3 and 10 μM, with 10 μM verapamil
  inhibition of voltage-dependent Ito, in words: substantially inhibited; also recorded: reduced
Ito; [3]
  effect on Ito in human atrial myocytes, in words: blocking effect
Ito; human atrial myocytes, +40 mV, IKur blocked with 10 μM verapamil, read-out: IC50 for inhibiting Ito
  IC50: 9.2 µM
[2]
  inhibition of IKs amplitude, in words: significantly inhibited
[2]; listed as acacetin
  inhibition of IKs amplitude, in words: inhibited
[2]; HEK 293 cells, IKs.step, +40 mV, read-out: IC50 for inhibiting IKs
  IC50: 81.4 µM
hERG channels
  IC50: 32.4 µM
